From the NIST ThermoML archive (doi:10.1021/je700055p)

Experiment: relative permittivity at various frequencies (dimensionless)
Conditions: 101.3 kPa, Liquid, Frequency=1 MHz, Coaxial cylinder capacitor

CC#N [acetonitrile]
Conditions	relative permittivity
288.15 K	37.52
293.15 K	36.62
298.15 K	35.88
303.15 K	35.15
308.15 K	34.45
313.15 K	33.75
318.15 K	33.01
323.15 K	32.36
328.15 K	31.62
333.15 K	31.05
